{"source": "patent US20080249001A1", "about": "“AGENTS THAT ALLEVIATE SIDE-EFFECTS CAUSED BY CHEMOTHERAPY AGENTS” (priority 2006, published 2008)", "key": {"[1]": {"test_system": "mouse bone-marrow cells (CFU-E colonies)", "assay": "in vitro CFU-E colony assay in methylcellulose semisolid medium under the existence of EPO", "type": "cell-based", "details": "for CFU-E inhibiting action (inhibition of expression of CFU-E colonies) / CFU-E inhibiting action (expression of CFU-E colonies): 48 hours", "procedure": "(§1) More specifically, the in vitro colony assay method wherein a methylcellulose semisolid medium is used is generally used as the method for determining CFU-E. It is the most suitable experimental system for finding the action of improving the decrease of CFU-E caused by chemotherapy agents. […] In the oral administration to rats, the single administration of 1.2 g/kg of arginine makes the blood concentration thereof reach around 600 μM. Therefore, the increase of CFU-E dependent on the administered dose is expected in the oral administration. In human beings, too, it is expected that the number of CFU-E increases depending on the blood concentration of arginine by the oral administration.\nThe in vitro CFU-E colony assay was conducted as follows. After making a male BDF-1 mouse of 11 weeks old (by Charles River Laboratories Japan, Inc.) die by the cervical dislocation method, the bone-marrow cells were isolated from the thighbone and suspended in the IMDM medium (by Invitrogen Corporation) which contained 10% FCS (by JRH Biosciences). The bone-marrow cells were centrifuged at 1500 rpm for 10 minutes at 4° C. Then, the precipitated bone-marrow cells were substituted on the IMDM medium without an amino acid, and the number of the cells was determined. 1 mL of a methylcellulose semisolid medium wherein the bone-marrow cells were suspended in the IMDM medium of ⅓ concentration (0.03, 0.1, 0.3 and 1.0 U/mL of rHuEPO by Chugai Pharmaceutical Co., Ltd.; 100 μM of 2-mercaptoethanol by Wako Pure Chemical Industries, Ltd.; 15% FCS by JRH Biosciences; 0.8% methylcellulose, IMDM solution M3134 containing methylcellulose by StemCell Technologies Inc.; 1% BSA by Sigma-Aldrich Japan K.K.; and bone-marrow cells 2.5×10^5/mL) was added to a dish of 3.5 cm in diameter (Nalge Nunc International K.K.). After the medium was cultured at 37° C. under 5% CO2 for 48 hours, the number of CFU-E colonies was determined by using an inverted microscope. […] Data is indicated as the average value.\nThe in vitro CFU-E colony assay was conducted in the EPO concentration of the maximal action amount thereof. […] Then, the number of CFU-E colonies was determined by using an inverted microscope. […] Data is indicated as the average value.\nThe CFU-E colony assay was conducted by the same method as that of Example 1. […] Data is indicated as the average value. The vertical axis is the relative value (%) when regarding the number of CFU-E colonies in the control case as 100%.\nThe in vitro CFU-E colony assay was conducted in the EPO concentration of the maximal action amount thereof. The bone-marrow cells were prepared by the same method as that of Example 1, using a male BDF-1 mouse of 12 weeks old (by Charles River Laboratories Japan, Inc.). Irinotecan hydrochloride was further added to a methylcellulose semisolid medium wherein the bone-marrow cells were suspended in the IMDM medium of ⅓ concentration (1.0 U/mL of rHuEPO by Chugai Pharmaceutical Co., Ltd.; 100 μM of 2-mercaptoethanol by Wako Pure Chemical Industries, Ltd.; 30% FCS by JRH Biosciences; 0.8% methylcellulose, IMDM solution M3134 containing methylcellulose by StemCell Technologies Inc.; 1% BSA by Sigma-Aldrich Japan K.K.; and bone-marrow cells 2.5×10^5/mL), so that the final concentration of irinotecan hydrochloride became 1 μM and 10 μM. After the medium was cultured at 37° C. under 5% CO2 for 48 hours, the number of CFU-E colonies was determined by using an inverted microscope. […] Data is indicated as the average value.\nThe CFU-E colony assay was conducted by the same method as that of above (1), using a male BDF-1 mouse of 11 weeks old (by Charles River Laboratories Japan, Inc.). The medium to which only 3 μM of irinotecan hydrochloride in its final concentration was added and the medium to which irinotecan hydrochloride in the same concentration as above and 600 uM of arginine were simultaneously further added were prepared and the number of CFU-E colonies was determined. […]"}, "[2]": {"test_system": "mouse bone-marrow cells (CFU-E colonies)", "assay": "in vitro CFU-E colony assay under the existence of EPO mimic peptide EMP1", "type": "cell-based", "procedure": "The bone-marrow cells were prepared by the same method as that of Example 1, using a male BDF-1 mouse of 10 weeks old (by Charles River Laboratories Japan, Inc.). 1 mL of a methylcellulose semisolid medium wherein the bone-marrow cells were suspended in the IMDM medium of ⅓ concentration (1, 3, 10 and 30 μM of EMP1; 100 μM of 2-mercaptoethanol by Wako Pure Chemical Industries, Ltd.; 24% FCS by JRH Biosciences; 0.8% methylcellulose, IMDM solution M3134 containing methylcellulose by StemCell Technologies Inc.; 2% BSA by Sigma-Aldrich Japan K.K.; and bone-marrow cells 2×10^5/mL) was added to a dish of 3.5 cm in diameter (Nalge Nunc International K.K.). After the medium was cultured at 37° C. under 5% CO2 for 48 hours, the number of CFU-E colonies was determined by using an inverted microscope. […] Data is indicated as the average value.\nThe in vitro CFU-E colony assay was conducted in the EMP1 concentration of the maximal action amount thereof. The bone-marrow cells were prepared by the same method as that of Example 1, using a male BDF-1 mouse of 10 weeks old (by Charles River Laboratories Japan, Inc.). […] After each medium was cultured at 37° C. under 5% CO2 for 48 hours, the number of CFU-E colonies was determined by using an inverted microscope. […] Data is indicated as the average value. The vertical axis is the relative value (%) when regarding the number of CFU-E colonies in the control case as 100%."}, "[3]": {"assay": "blood concentration of arginine after oral administration to rats", "type": "in vivo", "details": "single administration of 1.2 g/kg", "procedure": "as §1"}}, "note": "Where a name gives a salt, the structure may show the parent alone. Bridges are numbered along the chain shown (N, C = ends). Where no end group is shown, it is not given here.", "data": [{"compound": "COc1cc([C@@H]2c3cc4c(cc3[C@@H](O[C@@H]3O[C@@H]5CO[C@@H](C)O[C@H]5[C@H](O)[C@H]3O)[C@H]3COC(=O)[C@H]23)OCO4)cc(OC)c1O", "note": "[VP-16, etoposide]", "values": [{"measurement": "CFU-E inhibiting action (inhibition of expression of CFU-E colonies)", "setting": "[1]; 1 nM VP-16, 1 U/mL EPO, FIG. 2", "value": 10, "unit": "%"}, {"measurement": "CFU-E inhibiting action (inhibition of expression of CFU-E colonies)", "setting": "[1]; 10 nM VP-16, 1 U/mL EPO, FIG. 2", "value": 30, "unit": "%"}, {"measurement": "CFU-E inhibiting action (expression of CFU-E colonies)", "setting": "[1]; 100 nM VP-16, 1 U/mL EPO, FIG. 2", "value": "nearly completely inhibited"}, {"measurement": "decrease of number of CFU-E colonies due to single addition", "setting": "[2]; 10 nM VP-16 alone, 30 μM EMP1, relative to control 100%, FIG. 7", "value": "about 30%"}]}, {"compound": "N=C(N)NCCC[C@H](N)C(=O)O", "note": "[arginine]", "values": [{"measurement": "number of CFU-E colonies improved on simultaneous addition of arginine", "setting": "[1]; 600 uM arginine + 10 nM VP-16, 1 U/mL EPO, relative value to control 100%, FIG. 3", "value": "~90", "unit": "%"}, {"measurement": "increase of number of CFU-E colonies as compared with single addition of irinotecan hydrochloride", "setting": "[1]; 600 uM arginine + 3 μM irinotecan hydrochloride, 1 U/mL EPO, FIG. 5", "value": "~30", "unit": "%"}, {"measurement": "blood concentration", "setting": "[3]", "value": "around 600 μM"}, {"measurement": "number of CFU-E colonies improved on simultaneous addition of arginine", "setting": "[2]; 600 μM arginine + 10 nM VP-16, 30 μM EMP1, relative value to control 100%, FIG. 7", "value": "~90", "unit": "%"}]}, {"compound": "GGTYSCHFGPLTWVCKPQGG-NH2, C6-C15 disulfide bonding (disulfide 6-15; N-terminus assumed; SMILES CC(C)C[C@@H]1NC(=O)[C@@H]2CCCN2C(=O)CNC(=O)[C@H](Cc2ccccc2)NC(=O)[C@H](Cc2c[nH]cn2)NC(=O)[C@@H](NC(=O)[C@H](CO)NC(=O)[C@H](Cc2ccc(O)cc2)NC(=O)[C@@H](NC(=O)CNC(=O)CN)[C@@H](C)O)CSSC[C@@H](C(=O)N[C@@H](CCCCN)C(=O)N2CCC[C@H]2C(=O)N[C@@H](CCC(N)=O)C(=O)NCC(=O)NCC(N)=O)NC(=O)[C@H](C(C)C)NC(=O)[C@H](Cc2c[nH]c3ccccc23)NC(=O)[C@H]([C@@H](C)O)NC1=O) [EMP1]", "values": [{"measurement": "maximal action amount (CFU-E colony formation)", "setting": "[2]; EMP1 1, 3, 10 and 30 μM, 48 hours culture, FIG. 6", "value": "≥ 10", "unit": "µM"}]}, {"compound": "CCc1c2c(nc3ccc(OC(=O)N4CCC(N5CCCCC5)CC4)cc13)-c1cc3c(c(=O)n1C2)COC(=O)[C@]3(O)CC", "note": "[irinotecan hydrochloride]", "values": [{"measurement": "CFU-E inhibiting action (inhibition of expression of CFU-E colonies)", "setting": "[1]; 1 μM irinotecan hydrochloride, 1 U/mL EPO, FIG. 4", "value": 30, "unit": "%"}, {"measurement": "CFU-E inhibiting action (expression of CFU-E colonies)", "setting": "[1]; 10 μM irinotecan hydrochloride, 1 U/mL EPO, FIG. 4", "value": "nearly completely inhibited"}]}]}
